The structures appear in SMILES notation.

A short description of data set [1]: CFU-GM colony formation, mouse bone marrow. In kind it is cell-based. Conditions: mouse, bone marrow CFU-GM progenitor cells. As for the experimental part:
(§1) CFU-GM Colony Formation: The CFU-GM colony assay was performed as described in Parchment et al., (J. Natl. Cancer Inst. 86: 273-280 (1994)).

Another data set deals with mouse CFU-GM. Put plainly: CFU-GM colony formation, mouse bone marrow. In kind it is cell-based. The method, then: as §1
The next data set concerns caspases in M07e cells. The data set can be described thus: caspase activation in M07e cells. In kind it is cell-based, human. As for the experimental part:
Activation of caspases-1, -2, -3, -6, -8 and -9 was assessed using a caspase activation kit.

Data set [2] relates to Bcl-2 and Mcl-1 in patient leukemic cells and M07e cells. The data set can be described thus: Bcl-2 and Mcl-1 expression. Conditions: during 3-Cl-AHPC-mediated apoptosis. In kind it is cell-based, human. As for the experimental part:
Western Blots: Western blots were performed according to the protocol of Sheikh, M. S., et al., (Oncogene, 9: 3407-3415 (1994)). Logarithmically growing cells were treated with 3-Cl-AHPC for various times and cells were harvested and lysed in Laemmli lysis buffer (0.5 M Tris-HCl, pH 6.8, 0.002M EDTA, 10% glycerol, 10% sodium dodecyl sulfate (SDS), and 5% β-mercaptoethanol). Protein lysates (50 μg/lane) were electrophoresed on 12% SDS-polyacrylamide gels and transferred to nitrocellulose membranes. Membranes were blocked with 5% nonfat dried milk in PBS/0.5% Tween 20 and then incubated with the appropriate antibodies. Horseradish peroxidase-conjugated rabbit anti-mouse IgG was used as the secondary antibody, and bands were developed using the Amersham ECL non-radioactive method.

The next data set relates to cancer cells. The data set can be described thus: mitochondrial membrane potential (Δψm) using Rh123. In kind it is cell-based. The settings on record: 10^−6 M.
A further data set concerns MDA-MB-468. Put plainly: apoptosis induction / cell death in breast cancer cells. In kind it is cell-based, human.

Take `O=C(O)/C=C/c1ccc(-c2ccc(O)c(C34CC5CC(CC(C5)C3)C4)c2)c(Cl)c1` [Example 3-Cl-AHPC, (E)-4-[3-(1-Adamantyl)-4-hydroxyphenyl]-3-chlorocinnamic acid]: the IC90 (usually the point of the concentration-response curve where the effect stands at 90%) in data set [1] lay in the range of 315 to 794 nM. In addition, the “toxicity to mouse relative to human CFU-GM” value in the data set with mouse CFU-GM was 30 fold. In addition, in the data set with caspases in M07e cells (0.5 μM), the “increase in activity of caspase-2” value was “approximately 2 fold”, the “increase in activity of caspase-3” value is “approximately 2 fold”, the “increase in activity of caspase-6” value was “approximately 2 fold” and the “increase in activity of caspase-8” value was “approximately 2 fold”. In the data set on caspases in M07e cells (1 μM), the “increase in activity of caspase-2” value was “approximately 4 fold”, the “increase in activity of caspase-3” value was 2.5 fold, the “increase in activity of caspase-6” value is 3 fold and the “increase in activity of caspase-8” value is recorded as “approximately 4 fold”. The “modulation of Bcl-2 and Mcl-1 expression” value in data set [2] is “no modulation of their expression”. Moreover, in the data set with cancer cells, the “percentage of cells with Δψm loss” value was “significant increases in the percentage of cells with Δψm loss”. In addition, the ED50 (concentration that results in 50% cell death) in the data set on MDA-MB-468 was found to be 710 nM.

The record behind these values is patent publication USRE42700E1, “Induction of apoptosis in cancer cells” (Sanford-Burnham Medical Research Institute, priority 2001, dated 2011).
